# Measured values published in patent US10076519B2 (CYTOKINETICS, INC., priority 2010, dated 2018).
# Test system: rabbit skeletal myofibrils (fast skeletal myofibrils)
# Assay: Activation of fast skeletal myofibrils (PUMA assay, PK/LDH-coupled ATPase at pCa25)
# Assay type: biochemical
# Conditions: AC1.4 determined according to the procedure of Example 39; reported as class symbols
# Procedure, shortened: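 Detergent-washed rabbit psoas myofibrils (~90% fast fibres, calcium-regulated) assayed at calcium giving 25% of maximal ATPase rate (pCa25). ADP turnover coupled via pyruvate kinase/lactate dehydrogenase to NADH oxidation, read at 340 nm. Buffer 12 mM PIPES, 2 mM MgCl2, 1 mM DTT, pH 6.8; AC1.4 values derived.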
row,SMILES,Mean AC1.4
1,NC(=O)c1ccc(F)c(-c2ccc(NCC3(c4ncccc4F)CCC3)nn2)c1,A (A=<1 uM)
2,CCOC(=O)c1cc(-c2ccc(NCC(C)(C)c3ccc(F)cc3)nn2)ccc1F [ethyl 2-fluoro-5-(6-{[2-(4-fluorophenyl)-2-methylpropyl]amino}pyridazin-3-yl)benzoate],B (B=1-10 uM)
3,CC(C)(CNc1ccc(-c2ccc3[nH]nc(I)c3c2)nn1)c1ccc(F)cc1 [[2-(4-fluorophenyl)-2-methylpropyl][6-(3-iodo(1H-indazol-5-yl))pyridazin-3-yl]amine],B (B=1-10 uM)
4,CC(C)(CNc1ccc(-c2ccc3[nH]nc(N)c3c2)nn1)c1cccc(O)c1,B (B=1-10 uM)
5,CC(C)(CNc1ccc(C(=O)N2CCNCC2)nn1)c1ccc(F)cc1 [6-{[2-(4-fluorophenyl)-2-methylpropyl]amino}pyridazin-3-yl piperazinyl ketone],D (D=>20 uM)
6,CC(C)(CNc1ccc(-c2ccccc2Cl)nn1)c1ccc(F)cc1 [[6-(2-chlorophenyl)pyridazin-3-yl][2-(4-fluorophenyl)-2-methylpropyl]amine],A (A=<1 uM)

# Same assay, conditions: median AC1.4 class, procedure of Example 39
row,SMILES,Mean AC1.4
1,Nc1nccc(-c2ccc(NCC3(c4ncccc4F)CCC3)nn2)n1 [[6-(2-aminopyrimidin-4-yl)pyridazin-3-yl]{[(3-fluoro(2-pyridyl))cyclobutyl]methyl}amine],B (B=1-10 uM)
2,"NC(c1cnc(-c2ccc(NCC3(c4ncccc4F)CCC3)nn2)s1)C(F)(F)F (centres unmarked) [{6-[5-(1-amino-2,2,2-trifluoroethyl)(1,3-thiazol-2-yl)]pyridazin-3-yl}{[(3-fluoro(2-pyridyl))cyclobutyl]methyl}amine]",B (B=1-10 uM)
3,NC(=O)N[C@H]1C[C@@H](c2ccc(NCC3(c4ncccc4F)CCC3)nn2)C1,B (B=1-10 uM)
4,CCOC(=O)c1c(-c2ccc(NCC3(c4ncccc4F)CCC3)nn2)n[nH]c1O [ethyl 3-[6-({[(3-fluoro(2-pyridyl))cyclobutyl]methyl}ami-no)pyridazin-3-yl]-5-hydroxypyrazole-4-carboxylate],D (D=>20 uM)
5,COC(=O)c1cccc(-c2ccc(NC[C@]3(c4ncccc4F)C[C@H](F)C3)nn2)c1 [methyl 3-[6-({[3-fluoro-1-(3-fluoro(2-pyridyl))cyclobutyl]methyl}ami-no)pyridazin-3-yl]benzoate],B (B=1-10 uM)

# Same assay, conditions: median AC1.4 reported as class; procedure of Example 39
row,SMILES,Mean AC1.4
1,"CCOC(=O)Cc1csc(-c2ccc(NCC3(c4ncccc4F)CCC3)nn2)n1 [ethyl 2-{2-[6-({[(3-fluoro-2-pyridyl)cyclobutyl]methyl}ami-no)pyridazin-3-yl]-1,3-thiazol-4-yl}acetate]",C (C=10-20 uM)
2,"NC(=O)NC1CCc2nc(-c3ccc(NCC4(c5ncccc5F)CCC4)nn3)sc2C1 (centres unmarked) [amino-N-{2-[6-({[(3-fluoro(2-pyridyl))cyclobutyl]methyl}ami-no)pyridazin-3-yl](4,5,6,7-tetrahydrobenzothiazol-6-yl)}amide]",D (D=>20 uM)
3,O=C(O)c1cc(-c2ccc(NC[C@]3(c4ncccc4F)C[C@H](F)C3)nn2)ccc1F [2-fluoro-5-[6-({[3-fluoro-1-(3-fluoro(2-pyridyl))cyclobutyl]methyl}ami-no)pyridazin-3-yl]benzoic acid],B (B=1-10 uM)
4,O=C1NCc2ccc(-c3ccc(NC[C@]4(c5ncccc5F)C[C@H](F)C4)nn3)cc21 [6-[6-({[3-fluoro-1-(3-fluoro(2-pyridyl))cyclobutyl]methyl}ami-no)pyridazin-3-yl]isoindolin-1-one],B (B=1-10 uM)
5,Cc1cc(-c2ccc(NC[C@]3(c4ncccc4F)C[C@H](F)C3)nn2)cnc1N [[6-(6-amino-5-methyl(3-pyridyl))pyridazin-3-yl]{[3-fluoro-1-(3-fluoro(2-pyridyl))cyclobutyl]methyl}amine],B (B=1-10 uM)
6,CNC(=O)c1cc(C)cc(-c2ccc(NC[C@]3(c4ncccc4F)C[C@H](F)C3)nn2)c1 [{3-[6-({[3-fluoro-1-(3-fluoro(2-pyridyl))cyclobutyl]methyl}ami-no)pyridazin-3-yl]-5-methylphenyl}-N-methylcarboxamide],B (B=1-10 uM)
